Details: 101.33 kPa, Liquid; for mass density: Pycnometric method

CCCCn1cc[n+](C)c1.[I-] [1-butyl-3-methylimidazolium iodide]
Details | mass density [kg/m3] | viscosity [mPa·s]
299.15 K | 1434 | 593.68
304.15 K | 1432 | 442.64
308.15 K | 1430 | 336.95
313.15 K | 1426 | 227.98
318.15 K | 1422 | 173.86
323.15 K | 1418 | 134.23
328.15 K | 1414 | 105.34
333.15 K | 1406 | 81.51
338.15 K | 1400 | 65.85
343.15 K | 1398 | 53.43
348.15 K | 1396 | 44.68
353.15 K | 1394 | 36.52
358.15 K | 1392 | 30.4
363.15 K | 1388 | 26.11
368.15 K | 1386 | 22.5
373.15 K | 1382 | 20.43
378.15 K | 1376 | 18.1
383.15 K | 1370 | 15.22
388.15 K | 1360 | 13.11

CCCCCCn1cc[n+](C)c1.[I-] [1-hexyl-3-methylimidazolium iodide]
Details | mass density [kg/m3] | viscosity [mPa·s]
305.15 K | 1326 | 809.79
309.15 K | 1324 | 600.07
314.15 K | 1322 | 432.98
318.15 K | 1320 | 334.25
323.15 K | 1318 | 245.55
328.15 K | 1316 | 190.14
333.15 K | 1314 | 146.47
338.15 K | 1312 | 116.13
343.15 K | 1310 | 88.04
348.15 K | 1308 | 73.85
353.15 K | 1306 | 60.63
359.15 K | 1304 | 48.47
363.15 K | 1302 | 42.23
373.15 K | 1298 | 30.45
378.15 K | 1296 | 26.62
383.15 K | 1294 | 23.19
388.15 K | 1292 | 20.3

CCCCCCCC[n+]1ccn(C)c1.[I-] [1-methyl-3-octyl-1H-imidazolium iodide]
Details | mass density [kg/m3] | viscosity [mPa·s]
300.15 K | 1258 | 1306.3
303.15 K | 1254 | 981.11
308.15 K | 1250 | 726.71
313.15 K | 1246 | 524.3
319.15 K | 1242 | 404.37
323.15 K | 1240 | 296.66
328.15 K | 1234 | 229.09
333.15 K | 1230 | 174.35
338.15 K | 1228 | 138.53
343.15 K | 1224 | 104.81
348.15 K | 1218 | 89.02
353.15 K | 1212 | 73.17
358.15 K | 1210 | 58.41
363.15 K | 1206 | 49.6
368.15 K | 1204 | 43.21
373.15 K | 1200 | 35.57
378.15 K | 1196 | 31.43

Reference: the NIST ThermoML archive (doi:10.1021/je901092b)
